Assay results as given in US10071103B2, “Treatments for resistant acne” (VYOME BIOSCIENCES PVT. LTD., priority 2014, dated 2018).

Assays:
[1] = test system: P. acnes clinical isolates; assay: MIC of P. acnes isolated from acne patients (clinical isolates); conditions: for MIC: Cutibacterium acnes, clinical isolate susceptible to clindamycin and erythromycin;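 as to MIC: MIC in µg/mL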;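 as to all read-outs here: anaerobic 96-well plate assay at 37 °C over 72 h, with Alamar blue dye as read-out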
Description: P. acnes were cultured in Brain Heart Infusion Agar (BHIA) at 37° C. for 48 hours under anaerobic condition. […] For bacterial inoculum, P. acnes culture turbidity was adjusted to 0.5 McFarland standard (approximately 1.5×10^8) and further diluted (100 times with sterile BHI broth). Diluted P. acnes suspension (100 μl) was added to each well except sterility control wells (column 12 of 96 well plate). Inoculated plates were incubated at 37° C. for 72 hours under anaerobic condition. After incubation, MIC was determined by adding Alamar blue dye.

P. acnes CCARM 9010 = assay: MIC by micro broth dilution (Alamar blue), clindamycin-resistant/nonresponsive P. acnes; format: cell-based, Propionibacterium acnes; conditions: clindamycin-nonresponsive CCARM 9010
Description: (§1) The plates were incubated at 37° C. for 48 h under anaerobic condition for P. acnes and 37° C. for 24 h for S. aureus The plates were read under Bio-Rad plate reader at 595 nm for optical density to generate the dose-response curves. The MIC of the test compound was recorded by addition of Alamar blue dye.
(§2) P. acnes (MTCC 3297, MTCC 1951& CCARM 9010) are cultured in Brain Heart Infusion (BHI) Broth at 37° C. for 48-72 h under anaerobic condition. The test compounds/formulations are initially diluted with suitable solvent and further diluted with BHI broth to get the required concentrations. Samples (100 μl) of different concentrations (prepared by serial dilution) are added to 96-well plate. To the wells, 100 μl of P. acnes BHI broth culture is added [culture turbidity adjusted against 0.5 McFarland standard (approx 1.5×10^8), and further diluted 100-fold with sterile BHI broth]. In addition Growth Control and Sterility Control are created using 100 μl each of P. acnes BHI broth culture and plain BHI broth, respectively.
(§3) Plates are incubated at 37° C. for 48-72 hrs under anaerobic condition. The plate is read under Bio-Rad plate reader @ 595 nm for optical density to generate the dose-response curves. The MIC of the test compound is recorded by addition of Alamar blue dye.

P. acnes MTCC 1951 [2] = assay: MIC by micro broth dilution (Alamar blue), clindamycin-susceptible P. acnes; format: cell-based, Propionibacterium acnes; conditions: Cutibacterium acnes, MTCC1951; Table 7; against P. acnes; read-out: MIC
Description: as §1, §2, §3
BHI broth and BHI agar media were prepared as per the manufacturer's instruction and autoclaved at 121° C. for 15 minutes. […] For MIC determination testing, gels are dissolved in the solvent and further diluted with BHI broth. Then, 96 wells plate are filled with 100 μl of BHI broth containing drug with different concentration to get the final concentrations of 0.06, 0.13, 0.25, 0.5, 1 and 2 μg/ml in different lanes (lane 1 to lane 6). Remaining lanes of the 96 well plate are used as growth control and sterility control. Finally, P. acnes culture suspension (approx 1.5×10^6) is added in all the wells except sterility control wells and plate is incubated at 37° C. for 48-72 h under anaerobic condition. At the end of 72 h, Alamar blue solution (20 μl) is added into the wells and incubated at 37° C. for 2 h. Plate is visualized for bacterial inhibitions and MIC values of the tested samples are determined. […]

P. acnes MTCC 1951 [3] = format: cell-based, Propionibacterium acnes
Description: 3 to 4 Petri plates containing 48 h P. acnes culture was suspended in sterile Phosphate buffer saline, PBS (pH 7.2) and turbidity was adjusted to optical density of 1 at 600 nm (10^9 cells/ml). 50 ml of this culture suspension was centrifuged at 4000 rpm for 40 min. The supernatant was discarded and pellet resuspended in 250 μl of sterile PBS. 50 μl of these cell suspensions (10^10 cells) was spread over the plates containing various concentrations of antibiotics (around MIC range). Plates were incubated at 37° C. for 48 h and the lowest concentration of the drug that allowed no growth was taken as its MPC.

CC[C@H]1OC(=O)[C@H](C)[C@@H](O[C@H]2C[C@@](C)(OC)[C@@H](O)[C@H](C)O2)[C@H](C)[C@@H](O[C@@H]2O[C@H](C)C[C@H](N(C)C)[C@H]2O)[C@](C)(O)C[C@@H](C)C(=O)[C@H](C)[C@@H](O)[C@]1(C)O [Erythromycin, erythromycin]
0.19 µg/mL: MIC ([1]; P. acnes strain V15B-1E) | MIC ([1]; P. acnes strain V18-4E)
< 0.03 µg/mL: MIC ([1]; P. acnes strain V2-9) | MIC ([1]; P. acnes strain V2-10) | MIC ([1]; P. acnes strain V3-9) | MIC ([1]; P. acnes strain V3-10) | MIC ([1]; P. acnes strain V4-6) | MIC ([1]; P. acnes strain V4-8) | MIC ([1]; P. acnes strain V4-13) | MIC ([1]; P. acnes strain V5-2) | MIC ([1]; P. acnes strain V5-5) | MIC ([1]; P. acnes strain V5-7) | MIC ([1]; P. acnes strain V6-5) | MIC ([1]; P. acnes strain V6-6) | MIC ([1]; P. acnes strain V6-7) | MIC ([1]; P. acnes strain V7-3) | MIC ([1]; P. acnes strain V7-4) | MIC ([1]; P. acnes strain V7-14)
susceptible: Susceptibility of clinical isolates susceptible to clindamycin and erythromycin (in words) [1]
< 0.09 µg/mL: MIC ([1]; P. acnes strain V9-6E) | MIC ([1]; P. acnes strain V12-2E) | MIC ([1]; P. acnes strain V13-3E) | MIC ([1]; P. acnes strain V14-2E) | MIC ([1]; P. acnes strain V19-2E) | MIC ([1]; P. acnes strain V20-5E)
wide variation in sensitivity: Susceptibility of clindamycin-nonresponder clinical isolates (in words) [1]
0.78 µg/mL: MIC ([1]; P. acnes strain V17-3E)
resistance: Susceptibility of P. acnes isolated from volunteers V3 and V21 (in words) [1]

CN(C)c1ccc(O)c2c1C[C@H]1C[C@H]3[C@H](N(C)C)C(O)=C(C(N)=O)C(=O)[C@@]3(O)C(O)=C1C2=O [Minocycline, minocycline]
0.06 µg/mL: MIC ([1]; P. acnes strain V2-9) | MIC ([1]; P. acnes strain V2-10) | MIC ([1]; P. acnes strain V3-9) | MIC ([1]; P. acnes strain V3-10) | MIC ([1]; P. acnes strain V4-6) | MIC ([1]; P. acnes strain V4-8) | MIC ([1]; P. acnes strain V4-13) | MIC ([1]; P. acnes strain V5-2) | MIC ([1]; P. acnes strain V5-5) | MIC ([1]; P. acnes strain V5-7) | MIC ([1]; P. acnes strain V6-5) | MIC ([1]; P. acnes strain V6-6) | MIC ([1]; P. acnes strain V6-7) | MIC ([1]; P. acnes strain V7-3) | MIC ([1]; P. acnes strain V7-4) | MIC ([1]; P. acnes strain V7-14)

CC[C@H]1OC(=O)[C@H](C)[C@@H](O[C@H]2C[C@@](C)(OC)[C@@H](O)[C@H](C)O2)[C@H](C)[C@@H](O[C@@H]2O[C@H](C)C[C@H](N(C)C)[C@H]2O)[C@](C)(O)C[C@@H](C)/C(=N\OCOCCOC)[C@H](C)[C@@H](O)[C@]1(C)O [Roxithromycin]
resistant: Activity / bacterial killing, dose response curve (in words) (P. acnes CCARM 9010)

CC1Sc2c(C(=O)O)c(=O)c3cc(F)c(N4CCNCC4)cc3n21 (stereo not drawn) [Ulifloxacin]
1.2 µg/mL: MPC (P. acnes MTCC 1951 [3]; P. acnes, 10^10 cells inoculum)
0.13 µg/mL: MIC (P. acnes MTCC 1951 [2])
9.2: MPC/MIC (P. acnes MTCC 1951 [3]; ratio against P. acnes)
